In PMC7501296, “Rapid and direct control of target protein levels with VHL-recruiting dTAG molecules” (Nature Communications, 2020):

Legend:
Assay type in all cases: cell-based
LACZ-FKBP12^F36V = assay: Immunoblot of PATU-8902 LACZ-FKBP12F36V clone; settings: PATU-8902 LACZ-FKBP12F36V cells, 4 h
Method: (§1) PATU-8902 LACZ-FKBP12^F36V and FKBP12^F36V-KRAS^G12V; KRAS^−/− cells and 293T cells were lysed with RIPA buffer supplemented with cOmplete protease inhibitors (Roche), PhosSTOP phosphatase inhibitors (Roche), and 0.1% benzonase (Novagen). Proteins were separated using NuPAGE Bolt^TM Bis–Tris gels (Thermo Fisher Scientific) and transferred to nitrocellulose membranes, which were blocked with Odyssey Blocking Buffer (LI-COR) and incubated with primary antibodies overnight. Membranes were washed three times with TBS-T, incubated with the appropriate fluorescently labeled infrared secondary antibodies, washed again three times with TBS-T, and assessed using an Odyssey CLx Imager (LI-COR)[6],[15]. EWS502 cells were lysed with Cell Lysis Buffer (Cell Signaling Technology) supplemented with cOmplete protease inhibitors (Roche). Proteins were separated using SDS-PAGE gels and transferred to PVDF membranes, which were blocked with 5% milk in TBS-T and incubated with primary antibodies overnight. Membranes were washed five times with TBS-T, incubated with the appropriate horseradish peroxidase-conjugated secondary antibodies, washed again five times with TBS-T, and imaged. […]

CDK9 = molecular target: T1, CDK9 (Homo sapiens, UniProt P50750); assay: Immunoblot, co-treatment with THAL-SNS-032 and/or dTAGV-1 in PATU-8902 LACZ-FKBP12F36V clone
T1 construct: endogenous in cells; host or cells: PATU-8902 LACZ-FKBP12^F36V clone
Method: as §1, with “imaged. The following primary antibodies were employed in this study: HA (Cell Signaling Technology #3724 and #2367, dilution at 1:1000), phospho-ERK1/2 T202/Y204 (Cell Signaling Technology #4370, dilution at 1:1000), ERK1/2 (Cell Signaling Technology #4696, dilution at 1:1000), phospho-AKT S473 (Cell Signaling Technology #4060, dilution at 1:1000), AKT (Cell Signaling Technology #2920, dilution at 1:1000), FKBP12 (Abcam #ab24373, dilution at 1:1000), GFP (Cell Signaling Technology #2555, dilution at 1:1000), FLI (Abcam #ab15289, dilution at 1:2000), NKX2-2 (Abcam #ab187375, dilution at 1:1000), GAPDH (Cell Signaling Technology #2118, dilution at 1:3000), Vinculin (Cell Signaling Technology #13901, dilution at 1:3000), β-Actin (Cell Signaling Technology #58169, dilution at 1:3000), and α-Tubulin (Cell Signaling Technology #3873, dilution at 1:5000).” for “imaged.”

FKBP12^F36V-EWS/FLI = assay: Immunoblot of EWS502 FKBP12F36V-EWS/FLI; EWS/FLI-/- cells
Method: To generate 293T^WT FKBP12^F36V-KRAS^G12V and 293T^VHL−/− FKBP12^F36V-KRAS^G12V cells, concentrated lentiviral supernatants[6] were applied to 293T^WT and 293T^VHL−/− cells[33] in the presence of 4 µg mL^−1 polybrene and transduced cell lines were selected with 2 µg mL^−1 puromycin. To generate EWS502 FKBP12^F36V-GFP cells, EWS502 cells were transduced with pLEX_305-dTAG-GFP lentiviral supernatant and selected with 1 µg mL^−1 puromycin. To generate EWS502 FKBP12^F36V-EWS/FLI; EWS/FLI^−/− cells, EWS502 cells were co-transduced with pLEX_305-dTAG-EWS/FLI and lentiCRISPR v2-Blast-sgFLI_Ex9 lentiviral supernatants. Cells were then selected with both 1 µg mL^−1 puromycin (pLEX_305-dTAG-EWS/FLI) and 5 µg mL^−1 blasticidin (lentiCRISPR v2-Blast-sgFLI_Ex9). Knockout of endogenous EWS/FLI and the expression of exogenous FKBP12^F36V-EWS/FLI were confirmed by immunoblot and pooled transduced cell populations were employed for this study. PATU-8902 LACZ-FKBP12^F36V and FKBP12^F36V-KRAS^G12V; KRAS^−/− clones were also employed in this study.
as §1

## CC[C@H](C(=O)N1CCCC[C@H]1C(=O)O[C@H](CCc1ccc(OC)c(OC)c1)c1ccccc1OCC(=O)NCCCCCCC(=O)N[C@H](C(=O)N1C[C@H](O)C[C@H]1C(=O)N[C@@H](C)c1ccc(-c2scnc2C)cc1)C(C)(C)C)c1cc(OC)c(OC)c(OC)c1 [dTAG^V-1]
LACZ-FKBP12^F36V
  Degradation of FKBP12F36V-fusion (LACZ-FKBP12F36V), immunoblot: effective degradation
CDK9; co-treatment dTAGV-1 + THAL-SNS-032, 24 h
  Degradation of both LACZ-FKBP12F36V and CDK9 on co-treatment: pronounced degradation
CDK9; dTAGV-1 alone, 24 h
  CDK9 protein levels: did not alter
FKBP12^F36V-EWS/FLI; EWS502 FKBP12F36V-EWS/FLI, EWS/FLI-/- cells
  FKBP12F36V-EWS/FLI degradation, immunoblot: only susceptible to degradation upon treatment with dTAG^V-1
FKBP12^F36V-EWS/FLI; EWS502 cells
  Time of treatment at which FKBP12F36V-EWS/FLI degradation was evident: ≤ 1 h
